Test results published in patent publication US12599662B2, “Methods and compositions for treating cancers” (INSERM (INSTITUT NATIONAL DE LA SANTÉ ET DE LA RECHERCHE …, priority 2018, dated 2026).

Key:
4T1 cells [1] = test: Transcriptome analysis of VPA-treated 4T1 cells; assay type: cell-based; details: 0.5 mM VPA for 10 days versus non-VPA treated cells
Description: To determine the effect of VPA on 4T1 cells, a transcriptome analysis on cells treated with 0.5 mM of VPA for 10 days was performed and compared with that of non-VPA treated cells. These analyses allowed for the identification of the set of genes implicated in TNF-α signaling and in the response of IFN-α and IFN-γ. In addition, the use of the SAM algorithm allowed for the discrimination of 44 immune-related genes between the VPA-treated samples and their control counterparts, which were validated by principal component analysis (p-value=3.3×10^−4). […] These three molecules are known to contribute to the clonal expansion, survival, and development of T cells and regulate CD28 co-stimulation to promote Th1 cell responses. Consequently, this HDACi improves the immune response against the cancer cells.

4T1 cells [2] = test: Vaccination study with irradiated hESC + adjuvants + VPA on 4T1 mice model; assay type: in vivo; details: for Percentage of tumor reduction (% of reduction): day 26, compared to control group receiving only PBS, irradiated hESC vaccine + named adjuvant, VPA 4 mg/ml in drinking water, 4T1 in mammary fat pad
Description: FIG. 1: Vaccination study with hESC combined with Valproic acid (VPA), Poly(A:U), ODN 2395 or Quil-A® adjuvant on 4T1 mice model. Vaccination study with hESC combined with Valproic acid (VPA), Poly(A:U), ODN 2395 or Quil-A® adjuvant on 4T1 mice model. Blab/c mice two boosts of vaccine containing 3 different adjuvants the day of tumor challenge. Tumor growth was assessed until 26 days to follow the tumor size using calipers permitting to measure both the longitudinal (a, mm) and transverse (b, mm) diameters. Tumor volume was calculated and plotted using calculation formula 1/6Π(a+b/2)3 mm3.
The experiment was carried out as followed: Five mice per group received two boosts of vaccine 7 and 14 days with 2×10^6 irradiated hESCs cells that were mixed with 3 different adjuvants: 500 μg of TLR3, 50 μg of TLR9 agonist or 50 μg/ml of Quil-A® Saponin vaccine adjuvant. After 14 days 5×10^4 4T1 cells were injected into the mammary fat pad of the mice and Valproic acid added in the drinking water at the dose of 4 mg/ml. Five mice receiving no treatment were used as control.
Adjuvants used in the vaccine product: Three different adjuvants were tested: • 1/ A TLR3-based adjuvant: Poly(A:U) (ref #tlrl-pau, InvivoGen) Polyadenylic-polyuridylic acid (poly(A:U)) is a synthetic double stranded RNA molecule that specifically signals through TLR3. Poly(A:U) is known to induce the activation of dendritic cells and T lymphocytes, to promote antigen-specific Th1-immune responses and to boost antibody production. […]

[3] = system: mammosphere-derived 4T1 cells; test: MHC I expression on 4T1-derived mammospheres by flow cytometry; assay type: cell-based; details: 2 mM VPA
Description: (§1) FIG. 2: Valproic acid treatment increases MHC I expression in breast tumor cells. Variation in MHC I expression during VPA treatment at 2 mM on 4T1 adherent cells and on 4T1-derived mammospheres.
(§2) 4T1 cells are a triple negative breast cancer cell line that was incubated with increased doses (0.2 and 2 mM) of valproic acid (VPA). After 4 days of treatment, the MHC I surface marker was quantified by flow cytometry analysis.

4T1 cells [4] = test: Surface marker expression on 4T1 cells by flow cytometry; assay type: cell-based
Description: as §1, §2

LLC1 [5] = test: MTT cell proliferation assay on LLC1; assay type: cell-based; details: Mus musculus
Description: (§3) Non-small cell lung cancer (NSCLC) cell line (lewis lung carcinoma, LLC) expressing a particularly aggressive metastatic phenotype was used.
The half maximal inhibitory concentration (IC50) was first determined for each HDACi using an MTT cell proliferation assay. LLC1 was treated with an increasing dose of HDCAi and proliferation was estimated measuring the absorbance after the incorporation by the cell of MMT (3-(4,5-dimethylthiazol-2-yl)-2,5-diphenyl tetrazolium bromide) substrate.

LLC1 [6] = test: MHC class I and II expression on LLC1 by flow cytometry; assay type: cell-based; details: for MHC class 2 expression: LLC1, dose corresponding to IC50; for increase of expression of MHC1 on the cell membrane: LLC1, dose corresponding to IC50, 48 hours, compared to untreated cells
Source text: FIG. 3: HDACi up-regulates MHC1 in Lung cancer cell lines. […] MHCI and MHCII expression was quantified by flow cytometry analysis measuring the Relative Fluorescence Intensity (RFI).
as §3

HDACs = details: cited from earlier work

Molecule: CCCC(CCC)C(=O)O [VPA, acid-2-propylpentanoic]
- fold change of CD74, CCL2 and TNFRSF9 expression (4T1 cells [1]): greater than 2
- Percentage of tumor reduction (% of reduction) (4T1 cells [2]): 24%
- increase of MHC I expression (Relative Fluorescence Intensity) [3]: 2.7 fold
- MHC I levels (4T1 cells [4]; 0.2 and 2 mM, 4 days of treatment): increasing MHC I levels in a dose-dependent manner
- increase in PDL1 expression (4T1 cells [4]; 4T1 cells, 2 mM VPA): 2.1 fold
- increase of MHC I expression (Relative Fluorescence Intensity) (4T1 cells [4]; 4T1 cells, 2 mM VPA): 2.1 fold
- PDL2 expression (4T1 cells [4]; 4T1 cells, after VPA treatment): only weakly upregulated
- IC50 (LLC1 [5]): ~2000 µM
- MHC1 overexpression versus non-treated LLC1 cells (LLC1 [6]; LLC1, FIG. 3A): 10 folds
- MHC class 2 expression (LLC1 [6]): not modulated
- increase of expression of MHC1 on the cell membrane (LLC1 [6]): 2 fold

Molecule: O=C(CCCCCCC(=O)Nc1ccccc1)NO [Vorinostat, N-Hydroxy-N′-phenyloctanediamide]
- MHC class 2 expression (LLC1 [6]): not modulated
- increase of expression of MHC1 on the cell membrane (LLC1 [6]): 2 fold

Molecule: 2-pyrrolidinone-n-butyric acid [PBA]
- Ki (HDACs; major carboxylic acid metabolite of levetiracetam in humans, read-out: Ki for HDAC inhibition): 2250 µM

Molecule: Polyadenylic-polyuridylic acid [Poly(A:U)]
- Percentage of tumor reduction (% of reduction) (4T1 cells [2]): 54%
- reduction of breast tumor volume (4T1 cells [2]; hESC vaccine + adjuvant, versus TLR9 agonist or Quil-A, p<0.001): highest reduction of breast tumor volume

Molecule: Nc1ccccc1NC(=O)c1ccc(CNC(=O)OCc2cccnc2)cc1 [Entinostat]
- IC50 (LLC1 [5]): 2 to 4 µM
- MHC class 2 expression (LLC1 [6]): not modulated
- increase of expression of MHC1 on the cell membrane (LLC1 [6]): 2 fold

Molecule: CC[C@@H](C(N)=O)N1CCCC1=O [Levetiracetam]
- IC50 (LLC1 [5]): 2 to 4 µM
- MHC class 2 expression (LLC1 [6]): not modulated
- increase of expression of MHC1 on the cell membrane (LLC1 [6]): 2 fold
- direct effect on HDACs (HDACs): no direct effect on HDACs
